Experiments:
Assay type in all cases: biochemical
[1] = molecular target: T1, calpain-I isolated from human erythrocytes (Homo sapiens, UniProt P07384); experiment: Calpain I enzyme inhibition in vitro (kinetic fluorescence assay); details: apparent Ki from IC50 (Cheng-Prussoff); 20 nM calpain-I, 100 μM Suc-Leu-Tyr-AMC, pH 7.3, room temperature
T1 construct: calpain-I—isolated from human erythrocytes; purchased Calbiochem 208713; host or cells: human erythrocytes (tissue-derived)
T1 sequence (P07384 1-714): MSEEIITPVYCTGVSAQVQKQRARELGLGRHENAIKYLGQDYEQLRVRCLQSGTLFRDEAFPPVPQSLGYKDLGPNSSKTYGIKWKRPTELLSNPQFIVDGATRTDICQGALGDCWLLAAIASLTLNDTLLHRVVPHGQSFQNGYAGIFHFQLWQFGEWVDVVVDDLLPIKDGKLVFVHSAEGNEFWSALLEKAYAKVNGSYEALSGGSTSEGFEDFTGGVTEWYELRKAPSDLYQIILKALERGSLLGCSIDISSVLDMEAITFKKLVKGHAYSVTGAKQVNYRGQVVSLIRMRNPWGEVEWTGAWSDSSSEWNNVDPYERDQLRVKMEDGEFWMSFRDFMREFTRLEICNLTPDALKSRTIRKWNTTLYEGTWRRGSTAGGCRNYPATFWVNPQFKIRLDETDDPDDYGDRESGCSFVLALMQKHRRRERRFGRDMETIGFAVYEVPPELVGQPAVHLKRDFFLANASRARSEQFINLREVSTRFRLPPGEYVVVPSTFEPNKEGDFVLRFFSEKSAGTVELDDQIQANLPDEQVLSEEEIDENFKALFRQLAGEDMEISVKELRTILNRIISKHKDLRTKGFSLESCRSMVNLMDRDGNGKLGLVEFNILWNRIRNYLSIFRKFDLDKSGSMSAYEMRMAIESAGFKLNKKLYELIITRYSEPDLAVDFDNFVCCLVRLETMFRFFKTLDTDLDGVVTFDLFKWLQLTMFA
T1 sequence (P04632 1-268 partner): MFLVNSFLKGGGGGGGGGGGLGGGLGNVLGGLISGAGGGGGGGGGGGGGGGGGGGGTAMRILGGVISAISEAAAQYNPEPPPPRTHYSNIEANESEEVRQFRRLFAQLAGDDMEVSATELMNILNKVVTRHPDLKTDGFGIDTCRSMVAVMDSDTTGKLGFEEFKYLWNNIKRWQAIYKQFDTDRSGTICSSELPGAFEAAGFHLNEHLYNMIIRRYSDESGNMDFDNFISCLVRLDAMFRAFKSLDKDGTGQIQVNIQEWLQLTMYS
Experimental: (§1) Testing for blockade of the corresponding enzymic activities was carried out by means of kinetic fluorescence assays (excitation 390 nm, emission 460 nm).
(§2) Apparent Ki values were calculated from the experimentally determined IC50 values by the Cheng-Prussoff relation assuming a reversible competitive enzyme inhibition. The Km values of the substrates used under the assay conditions indicated above were: 90 μM (Z-Phe-Arg-AMC, cathepsin B), 10 μM (Z-Gly-Pro-Arg-AMC, cathepsin K), 2 μM (Z-Phe-Arg-AMC, cathepsin L), and 30 μM (Z-Val-Val-Arg-AMC, cathepsin S).
(§3) The indicated Ki values are averages of the inhibition constants calculated on the basis of 2 to 4 independent dose-effect plots.
(§4) • 20 nM calpain-I—isolated from human erythrocytes (Calbiochem #208713), 100 μM Suc-Leu-Tyr-AMC (Bachem #I-1355) as substrate in buffer with 62 mM imidazole, 0.3 mM CaCl2, 0.10% CHAPS, 0.05% BSA, 1 mM DTT at pH 7.3 and room temperature. 1. Cathepsin B: • 0.25 nM cathepsin B—isolated from human liver (Calbiochem #219362), 100 μM Z-Phe-Arg-AMC (Bachem #I-1160) as substrate 50 mM MES, 2 mM EDTA, 0.05% Brij 35, 2.5 mM L-cysteine, pH 6.0, room temperature. 3. Cathepsin K: • 3 nM cathepsin K activated from recombinant human procathepsin K from E. coli (Calbiochem #342001), 10 μM Z-Gly-Pro-Arg-AMC (Biomol #P-142) as substrate in 50 mM MES, 2 mM EDTA, 0.05% Brij 35, 2.5 mM L-cysteine, pH 6.0, room temperature. 4. Cathepsin L: • 1 nM cathepsin L—isolated from human liver (Calbiochem #219402), 2 μM Z-Phe-Arg-AMC (Bachem #I-1160) as substrate in 50 mM MES, 2 mM EDTA, 0.05% Brij 35, 2.5 mM L-cysteine, pH 6.0, room temperature. 5. Cathepsin S: • 0.5 nM recombinant human cathepsin S from E. coli (Calbiochem #219343), 20 μM Z-Val-Val-Arg-AMC (Bachem #I-1540) as substrate in 50 mM MES, 2 mM EDTA, 0.05% Brij 35, 2.5 mM L-cysteine, pH 6.0, room temperature.

[2] = molecular target: T2, cathepsin K activated from recombinant human procathepsin K (Homo sapiens, UniProt P43235); experiment: Cathepsin K enzyme inhibition in vitro (kinetic fluorescence assay); details: Ki(cathepsin K)/Ki(calpain) ratio
T2 construct: purchased Calbiochem 342001; host or cells: E. coli
T2 sequence (P43235 115-329): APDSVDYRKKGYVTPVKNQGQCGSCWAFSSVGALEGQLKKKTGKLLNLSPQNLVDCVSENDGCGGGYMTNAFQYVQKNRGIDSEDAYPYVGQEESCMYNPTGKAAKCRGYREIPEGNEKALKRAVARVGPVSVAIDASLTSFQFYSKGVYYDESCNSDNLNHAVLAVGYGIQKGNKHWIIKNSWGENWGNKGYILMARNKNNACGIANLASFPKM
Experimental: as §1, §2, §3, §4

[3] = molecular target: T3, recombinant human cathepsin S (Homo sapiens, UniProt P25774); experiment: Cathepsin S enzyme inhibition in vitro (kinetic fluorescence assay); details: Ki(cathepsin S)/Ki(calpain) ratio
T3 construct: purchased Calbiochem 219343; host or cells: E. coli
Experimental: as §1, §2, §3, §4

[4] = molecular target: T4, cathepsin B isolated from human liver (Homo sapiens, UniProt P07858); experiment: Cathepsin B enzyme inhibition in vitro (kinetic fluorescence assay); details: Ki(cathepsin B)/Ki(calpain) ratio
T4 construct: cathepsin B—isolated from human liver; purchased Calbiochem 219362; host or cells: human liver (tissue-derived)
Experimental: as §1, §2, §3, §4

T3 sequence (P25774 115-331): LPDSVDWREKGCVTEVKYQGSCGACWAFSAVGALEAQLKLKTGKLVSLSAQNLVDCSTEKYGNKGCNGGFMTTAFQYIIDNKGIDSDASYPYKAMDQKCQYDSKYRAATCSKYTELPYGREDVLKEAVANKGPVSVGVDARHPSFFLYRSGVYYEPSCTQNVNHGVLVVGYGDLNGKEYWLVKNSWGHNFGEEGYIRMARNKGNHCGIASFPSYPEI

SMILES | Ki [1] [nM] | Sel cat. K [2] | Sel cat. S [3] | Sel cat. B [4]
O=C(NCCc1ccccn1)C(=O)C(Cc1ccccc1)NC(=O)[C@H]1CCC(=O)N1Cc1ccccc1 (mixture of isomers) [Example 31, (2R)-1-Benzyl-N-(3,4-dioxo-1-phenyl-4-(2-(pyridin-2-yl)-ethylamino)butan-2-yl)-5-oxopyrrolidine-2-carboxamide] | 100 to 600 | ++ (10<Ki(cathepsin B)/Ki(calpain)≦30) | ++ (30<Ki(cathepsin B)/Ki(calpain)≦100) | 
O=C(NCCCc1ccccn1)C(=O)C(Cc1ccccc1)NC(=O)[C@H]1CCC(=O)N1Cc1ccccc1 (mixture of isomers) [Example 32, (2R)-1-Benzyl-N-(3,4-dioxo-1-phenyl-4-(3-(pyridin-2-yl)propylamino)butan-2-yl)-5-oxopyrrolidine-2-carboxamide] | 50 to 100 | + (5<Ki(cathepsin K)/Ki(calpain)≦10) | ++ (30<Ki(cathepsin B)/Ki(calpain)≦100) | ++ (10<Ki(cathepsin B)/Ki(calpain)≦30)
O=C(NCCCc1ccccc1)C(=O)C(Cc1ccccc1)NC(=O)[C@H]1CCC(=O)N1Cc1ccccc1 (mixture of isomers) [Example 33, (2R)-1-Benzyl-N-(3,4-dioxo-1-phenyl-4-(3-phenylpropylamino)butan-2-yl)-5-oxopyrrolidine-2-carboxamide] | 50 to 100 | ++ (10<Ki(cathepsin B)/Ki(calpain)≦30) | ++ (30<Ki(cathepsin B)/Ki(calpain)≦100) | ++ (10<Ki(cathepsin B)/Ki(calpain)≦30)
O=C(NCc1cncs1)C(=O)C(Cc1ccccc1)NC(=O)[C@H]1CCC(=O)N1Cc1ccccc1 (mixture of isomers) [Example 52, (2R)-1-Benzyl-N-(3,4-dioxo-1-phenyl-4-(thiazol-5-ylmethylamino)butan-2-yl)-5-oxopyrrolidine-2-carboxamide] | 100 to 600 |  |  | 
O=C(C(=O)N1CCOCC1)C(Cc1ccccc1)NC(=O)[C@H]1CCC(=O)N1Cc1ccccc1 (mixture of isomers) [Example 54, (2R)-1-Benzyl-N-(4-morpholino-3,4-dioxo-1-phenylbutan-2-yl)-5-oxopyrrolidine-2-carboxamide] | 100 to 600 |  |  | 
CCNC(=O)C(=O)C(Cc1ccccc1)NC(=O)[C@H]1CCC(=O)N1Cc1ccc(C(F)(F)F)cc1 (mixture of isomers) [Example 55, (2R)—N-(4-(ethylamino)-3,4-dioxo-1-phenylbutan-2-yl)-5-oxo-1-(4-(trifluoromethyl)benzyl)pyrrolidine-2-carboxamide] | 100 to 600 |  |  | 
O=C(NC1CCCCC1)C(=O)C(Cc1ccccc1)NC(=O)[C@H]1CCC(=O)N1Cc1ccccc1 (mixture of isomers) [Example 56, (2R)-1-Benzyl-N-(4-(cyclohexylamino)-3,4-dioxo-1-phenylbutan-2-yl)-5-oxopyrrolidine-2-carboxamide] | 50 to 100 | + (5<Ki(cathepsin K)/Ki(calpain)≦10) | ++ (30<Ki(cathepsin B)/Ki(calpain)≦100) | ++ (10<Ki(cathepsin B)/Ki(calpain)≦30)
O=C(NC[C@H]1CCCO1)C(=O)C(Cc1ccccc1)NC(=O)[C@H]1CCC(=O)N1Cc1ccccc1 (mixture of isomers) [Example 69, (2R)-1-Benzyl-N-(3,4-dioxo-1-phenyl-4-(((R)-tetrahydrofuran-2-yl)methylamino)-butan-2-yl)-5-oxopyrrolidine-2-carboxamide] | 100 to 600 |  |  | 
O=C(NCc1ccco1)C(=O)C(Cc1ccccc1)NC(=O)[C@H]1CCC(=O)N1Cc1ccccc1 (mixture of isomers) [Example 72, (2R)-1-Benzyl-N-(4-(furan-2-ylmethylamino)-3,4-dioxo-1-phenylbutan-2-yl)-5-oxopyrrolidine-2-carboxamide] | 50 to 100 |  |  | 
COc1cccc(C(F)(F)F)c1CN1C(=O)CC[C@@H]1C(=O)NC(Cc1ccccc1)C(=O)C(=O)NC1CC1 (mixture of isomers) [Example 74, (2R)—N-(4-(Cyclopropylamino)-3,4-dioxo-1-phenylbutan-2-yl)-1-(2-methoxy-6-(trifluoromethyl)benzyl)-5-oxopyrrolidine-2-carboxamide] | 100 to 600 |  |  | 
O=C(NCCc1ccsc1)C(=O)C(Cc1ccccc1)NC(=O)[C@H]1CCC(=O)N1Cc1ccccc1 (single isomer, unassigned) [Example 71] | < 50 |  |  | 
NC(=O)C(=O)C(Cc1ccccc1)NC(=O)c1cccc(=O)n1Cc1ccccc1 (centres unmarked) [Example 4, N-(4-Amino-3,4-dioxo-1-phenylbutan-2-yl)-1-benzyl-6-oxo-1,6-dihydropyridine-2-carboxamide] | 50 to 100 |  | + (10<Ki(cathepsin S)/Ki(calpain)≦30) | ++ (10<Ki(cathepsin B)/Ki(calpain)≦30)
NC(=O)C(=O)C(Cc1ccccc1)NC(=O)[C@H]1CCC(=O)N1Cc1ccc2ccccc2c1 (stereo partly drawn) [Example 12, (2R)—N-(4-Amino-3,4-dioxo-1-phenylbutan-2-yl)-1-(naphthalen-2-ylmethyl)-5-oxopyrrolidine-2-carboxamide] | < 50 | + (5<Ki(cathepsin K)/Ki(calpain)≦10) | + (10<Ki(cathepsin S)/Ki(calpain)≦30) | 
CN1C[C@H](C(=O)NC(Cc2ccccc2)C(=O)C(N)=O)N(Cc2ccccc2)C1=O (stereo partly drawn) [Example 18, (4R)—N-(4-Amino-3,4-dioxo-1-phenylbutan-2-yl)-3-benzyl-1-methyl-2-oxoimidazolidine-4-carboxamide] | 100 to 600 |  |  | +++ (Ki(cathepsin B)/Ki(calpain) ratio of >30)
O=C(NCc1nc2ccccc2s1)C(=O)C(Cc1ccccc1)NC(=O)[C@H]1CCC(=O)N1Cc1ccccc1 (stereo partly drawn) [Example 53, (2R)—N-(4-(Benzo[d]thiazol-2-ylmethylamino)-3,4-dioxo-1-phenylbutan-2-yl)-1-benzyl-5-oxopyrrolidine-2-carboxamide] | 50 to 100 |  |  | 
O=C(NC[C@@H]1CCCO1)C(=O)C(Cc1ccccc1)NC(=O)[C@H]1CCC(=O)N1Cc1ccccc1 (stereo partly drawn) [Example 70, (2R)-1-Benzyl-N-(3,4-dioxo-1-phenyl-4-(((S)-tetrahydrofuran-2-yl)methylamino)-butan-2-yl)-5-oxopyrrolidine-2-carboxamide] | 50 to 100 |  |  | 
